Measured values: US20260335277A1, “CHLOROTONIL DERIVATIVES” (priority 2023, published 2026)
Converted amounts (≈) assume the structure as drawn. “And” between values parts separate entries of the source, which are not always exact repeats. Equal values may be shown once. Read-outs that look alike come from different tables or passages of the source.

Assays:
[1] = In vivo PK, peroral vs. intravenous administration, peroral bioavailability; design: species or system mouse; details: for half-life: read-out: t1/2z (converted)
Description: According to the current invention, intravenous injection in vivo was possible for the first time using a vehicle consisting of 50% ClearSol™ in phosphate buffered saline (PBS) pH 7.4.

zebrafish larvae = experiment: Toxicity in zebrafish larvae (MTC / IC50); assay type: in vivo
Experimental: For toxicity screening, zebrafish larvae were exposed three days post fertilization and monitored for 48 h until five days post fertilization. All malformations and pathophysiological phenotypes were noted and used to determine the inhibitory concentration (IC50) of the respective derivative against zebrafish larvae. The selectivity index (SI) was then calculated using the IC50 and the MIC of either S. aureus or P. falciparum 3D7.

Plasma stability = assay type: in vitro ADME; details: for half-life: plasma, read-out: plasma stability t1/2 (converted)
Experimental: (§1) Complementing the toxicity profiling, ADME properties of the lead dehalogenil were determined. This had not been possible for the first generation frontrunner ChB1-Epo2 or the natural product ChA because of their poor limit of detection. […] Across species (mouse, rat, human), metabolic stability is high while plasma stability is moderate. Besides, no hemolysis and no inhibition of the metabolically important enzyme CYP3A4 was observed by both dehalogenil and ChA. Plasma protein binding (PPB) is >99.4% in all species.

[2] = Plasma protein binding (PPB); assay type: in vitro ADME
Experimental: as §1

S. aureus = experiment: Murine foreign body (catheter) infection model; assay type: in vivo, mouse
Experimental: In a murine model, infected catheter tubings were implanted under the rodent skin followed by subcutaneous treatment (once per day with 25 mg/kg for six days).
The infection was established using a bacterial inoculum of 1×10^4 colony-forming units (CFU) injected into the lumen of the implanted peripheral venous catheter tubing fragment. Dehalogenil (25 mg/kg) was administered s.c. once per day, starting at 3 h post infection. Linezolid (Zyvoxid, Pfizer) was used as a reference antibiotic. Six days post infection, mice were euthanized, edema sizes around the implanted catheter fragment determined (c), and the catheter fragments and surrounding tissues were explanted. Bacterial loads from catheter detached biofilms (a) and in surrounding tissue homogenates (b) were determined by CFU counting. The data represent the value of every individual animal (symbols) and the median (horizontal lines). […], **p<0.01, ***p<0.001 (Kruskal-Wallis tests followed by Dunn's post hoc test).

[3] = literature product; cited from earlier work
[4] = Activity compared with chlorotonil A (general statement); details: vs chlorotonil A
Hemolysis = assay type: cell-based
Experimental: as §1

Metabolic stability = assay type: in vitro ADME; details: for microsomal CLint: liver microsomes, read-out: microsomal clearance
Experimental: as §1

[5] = tested on: mature gametocytes (stages IV and V); experiment: Activity against mature gametocytes (stage IV-V), bioluminescence assay; assay type: cell-based, P. falciparum
Experimental: Activity against gametocytes was determined using an in vitro bioluminescence assay as described previously (doi.org/10.1371/journal.pone.0035019).

[6] = tested on: clinical isolates of S. aureus; experiment: MIC 50/90 profiling in multidrug-resistant clinical isolates; assay type: cell-based
Experimental: (§2) Minimal inhibitory concentration (MIC) of the compounds in the present invention was determined using broth microdilution performed according to EUCAST guidelines (ISO20776-1:2019). S. aureus ATCC29213 and E. faecalis ATCC29212 served as quality control strains.
(§3) Activity of dehalogenil against multidrug-resistant clinical isolates of S. aureus (n=100) and Enterococcus spp. […] Compared to the standard of care (linezolid, daptomycin and tigecyclin), dehalogenil MIC90 was lowered in both pathogens by 20-40-fold with unimodal distribution indicating no pre-existing resistances.

E. faecium = experiment: as above; assay type: cell-based
Experimental: as §2, §3

[7] = In vivo PK after subcutaneous application (50% ClearSol/PBS pH 7.4); design: species or system mouse; details: for Cz / tz / AUC(0-t) / Cmax / Tmax: n = 3; for AUC(0-t) / Cmax / Tmax: mouse, in vivo
Experimental: Dehalogenil was further applied subcutaneously at 5, 10 and 25 mg/kg in 50% ClearSol™/PBS pH 7.4.

S. aureus Newman = experiment: MIC in presence of fetal bovine serum (FBS); assay type: cell-based; details: for MIC: Staphylococcus aureus, NEWMAN, read-out: MIC against S. aureus Newman
Experimental: as §2

P. berghei = P. berghei parasite load in mice; assay type: in vivo, mouse
[8] = mouse, in vivo, mice, 7.5 mg/kg iv, mean (n = 3)
[9] = mouse, in vivo, mice, 10 mg/kg po, mean (n = 3)
[10] = 25 mg/kg SC once per day, six days
[11] = Staphylococcus aureus, S. aureus clinical isolates (n = 100)
[12] = Enterococcus faecium, E. faecium (n = 98)

Compound: CC1=CC(C)C2C(C=CC3C(C)C=CC=CC(C)OC(=O)C(C)C(=O)CC(=O)C32)C1 (stereo not shown) [dehalogenil]
- bioavailability ([1]; mice, 7.5 mg/kg iv (reference)): 100%
- tz ([1]; mice, 7.5 mg/kg iv, mean (n = 3)): 24 h
- tz ([1]; mice, 10 mg/kg po, mean (n = 3)): 24 h
- AUC(0-inf) [1, 8]: 12100 ng·h/mL
- AUC(0-t) [1, 8]: 9580 ng·h/mL
- C0 [1, 8]: 872 ng/mL
- half-life [1, 8]: 10.8 h
- bioavailability ([1]; mouse, in vivo, mice, 10 mg/kg po vs 7.5 mg/kg iv, read-out: Bioavailability): 9.5%
- AUC(0-inf) [1, 9]: 1540 ng·h/mL
- AUC(0-t) [1, 9]: 1400 ng·h/mL
- Cmax [1, 9]: 101 ng/mL
- Tmax [1, 9]: 3 h
- half-life [1, 9]: 6.7 h
- bioavailability ([1]; mouse, in vivo, rodents, oral, read-out: oral bioavailability): ~10%
- toxic effects in zebrafish (zebrafish larvae; 5-10 μg/mL): no toxic effects
- IC50 in zebrafish larvae (zebrafish larvae; exposed 3 days post fertilization, monitored 48 h): 27400 nM
- Selectivity Index S. aureus (zebrafish larvae; zebrafish IC50 / MIC S. aureus Newman): 224.8
- Selectivity Index P. falc 3D7 (zebrafish larvae; zebrafish IC50 vs P. falciparum 3D7): 5479.6
- plasma stability (Plasma stability; human): moderate
- half-life (Plasma stability; human): 1.4 h
- plasma stability (Plasma stability; mouse): moderate
- half-life (Plasma stability; mouse): 1.5 h
- plasma stability (Plasma stability; rat): moderate
- half-life (Plasma stability; rat): 1.2 h
- fraction unbound ([2]; human, all species: human, read-out: Plasma protein binding (PPB)): < 0.006
- fraction unbound ([2]; human, read-out: plasma protein binding): < 0.004
- fraction unbound ([2]; mouse, all species: mouse, read-out: Plasma protein binding (PPB)): < 0.006
- fraction unbound ([2]; mouse, read-out: plasma protein binding): < 0.002
- reduction in bacterial loads in the tissues surrounding the catheter fragments (S. aureus; [10]): > 3 log10 and 3.24 log10
- reduction in bacterial loads on the catheter fragments (S. aureus; [10]): > 3 log10 and 3.85 log10
- bacterial load at the site of infection and on the implant (S. aureus; 6×25 mg/kg SC): significantly reducing bacterial loads
- activity described in the literature [3]: inactive
- activity compared to chlorotonil A [4]: activity similar to chlorotonil A
- hemolysis (Hemolysis): no hemolysis
- hemolysis at 20 µM (Hemolysis; 20 μM, human blood cells, read-out: haemolysis of human blood cells): 1.4%
- metabolic stability (Metabolic stability; human): high
- microsomal CLint (Metabolic stability; human): 6.4 µL/min/mg
- metabolic stability (Metabolic stability; mouse): high
- microsomal CLint (Metabolic stability; mouse): 6.4 µL/min/mg
- metabolic stability (Metabolic stability; rat): high
- microsomal CLint (Metabolic stability; rat): 14 µL/min/mg
- IC50 [5]: 5.8 nM
- MIC [6, 11]: 0.025 to 0.4 µg/mL (≈ 0.0609 to 0.974 µM)
- MIC50 [6, 11]: 0.1 µg/mL (≈ 0.244 µM)
- MIC90 [6, 11]: 0.2 µg/mL (≈ 0.487 µM)
- MIC90 lowered compared to standard of care ([6]; vs linezolid, daptomycin and tigecyclin, S. aureus (n=100)): 20-40 fold
- MIC (E. faecium; Enterococcus faecium, read-out: MIC range): 0.00625 to 0.2 µg/mL (≈ 0.0152 to 0.487 µM)
- MIC50 (E. faecium; [12]): 0.025 µg/mL (≈ 0.0609 µM)
- MIC90 (E. faecium; [12]): 0.1 µg/mL (≈ 0.244 µM)
- MIC90 lowered compared to standard of care (E. faecium; vs linezolid, daptomycin and tigecyclin, Enterococcus spp. (n=98)): 20-40 fold
- Cz ([7]; mice, 5 mg/kg sc): 109.0 ng/mL
- tz ([7]; mice, 5 mg/kg sc): 24.0 h
- Cz ([7]; mice, 10 mg/kg sc): 257.0 ng/mL
- tz ([7]; mice, 10 mg/kg sc): 24.0 h
- Plasma levels, subcutaneous vs intravenous ([7]; mice, 25 mg/kg sc vs 7.5 mg/kg iv): comparable to 7.5 mg/kg dehalogenil applied intravenously
- Cz ([7]; mice, 25 mg/kg sc): 595 ng/mL
- tz ([7]; mice, 25 mg/kg sc): 24.0 h
- Dose response after subcutaneous application ([7]; mice, 5, 10 and 25 mg/kg sc): suitable dose response
- AUC(0-t) ([7]; mice, 5 mg/kg sc): 2690 ng·h/mL
- Cmax ([7]; mice, 5 mg/kg sc): 125 ng/mL
- Tmax ([7]; mice, 5 mg/kg sc): 7 h
- AUC(0-t) ([7]; mice, 10 mg/kg sc): 8090 ng·h/mL
- Cmax ([7]; mice, 10 mg/kg sc): 488 ng/mL
- Tmax ([7]; mice, 10 mg/kg sc): 3 h
- AUC(0-t) ([7]; mice, 25 mg/kg sc): 18500 ng·h/mL
- Cmax ([7]; mice, 25 mg/kg sc): 1200 ng/mL
- Tmax ([7]; mice, 25 mg/kg sc): 3 h
- MIC (S. aureus Newman; MHB2 + 5% FBS): 2 µg/mL
- MIC (S. aureus Newman; MHB2 + 10% FBS): 4 µg/mL
- MIC (S. aureus Newman; MHB2 + 20% FBS): 4 µg/mL
- MIC (S. aureus Newman; MHB2 + 30% FBS): 8 µg/mL
- MIC (S. aureus Newman; MHB2 + 40% FBS): 8 µg/mL
- MIC (S. aureus Newman; MHB2 + 50% FBS): > 8 µg/mL
- MIC (S. aureus Newman; MHB2, no FBS): 0.0625 µg/mL
- Activity in presence of FBS (S. aureus Newman; above 20% FBS): remained active above 20% FBS
- reduction of P. berghei parasite load (P. berghei): > 99%
